# Laboratory results taken from article PMC8632988, “Inhibition of SYK and cSrc kinases can protect bone and cartilage in preclinical models of osteoarthritis and rheumatoid arthritis” (Scientific Reports, 2021).
# Values joined by “and” are separate entries in the source; they are usually repeats but may differ in a detail not shown here. Equal values may be shown once.
# Tested on: DBA/1 mice, CIA model
# Assay: Collagen-induced arthritis model in mice
# Assay type: in vivo, mouse
# Design: Total AUC Sum (d1-11) / Total AUC Sum (d1-11), Mean: scale not given here
# Method: Collagen-induced arthritis (CIA) model was performed at Bolder BioPATH, USA. Study design and animal usage was approved by Bolder BioPATH’s Institutional Animal Care and Use Committee. CIA was induced in 6–7 week old male DBA/1 mice with body weight of 15–26 g (Harlan, Inc) by intradermal injection of Freund’s Complete Adjuvant (Difco) containing bovine type II collagen (Bolder BioPATH) on day 0 and again on day 21 according to the standard protocol. […] After that mice were randomized into six groups: a control group of four, vehicle group and four treatment groups of ten mice each. […] Each paw was scored daily for inflammation. Therapeutic and prophylactic paws were considered. At study termination mice were euthanized by CO2 inhalation followed by cervical dislocation. Fore paws, hind paws, and knees were removed for microscopy.
# Mice were weighed on arthritis days 1, 3, 5, 7, 9, and 11 (prior to necropsy). Daily clinical scores were given for each of the paws (right front, left front, right rear, left rear) on days 1–11 using the following criteria:
# After 1–2 days in fixative and 4–5 days in 5% formic acid for decalcification, tissues were trimmed, processed for paraffin embedding, sectioned at 8 µm and stained with toluidine blue. Hind paws and knees were embedded and sectioned in the frontal plane. Two joints from each animal were processed for histopathology evaluation. The joints were then scored by two independent readers as indicated below. When scoring, severity of changes as well as number of individual joints affected were considered. When only 1–3 joints of the paws or ankles out of a possibility of numerous metacarpal/metatarsal/digit or tarsal/tibiotarsal joints were affected, an arbitrary assignment of a maximum score of 1, 2 or 3 for parameters below was given depending on severity of changes. If more than 3 joints were involved, the criteria below were applied to the most severely affected/majority of joints.
# [1] = all joints, MT-SYK-03 103 mg/kg PO, BID (Group 4)
# [2] = all joints, MT-SYK-03 103 mg/kg PO, BID (Group 4), group mean
# [3] = all joints, MT-SYK-03 103 mg/kg PO, BID (Group 4), individual animals, 103 mg/kg
compound,measurement,setting,value
COc1cc(Nc2ncnc(Nc3cc4c(cn3)NC(=O)C(C)(C)O4)n2)cc(OC)c1OC [MT-SYK-03],"% inhibition to Vehicle, Summed Prophylactic (Non-Enrollment) Paw Score","MT-SYK-03 103 mg/kg PO, BID, Day 11",17%
same,Summed Prophylactic (Non-Enrollment) Paw Score,"MT-SYK-03 103 mg/kg PO, BID, Day 11, group mean",7.30
same,Summed Prophylactic (Non-Enrollment) Paw Score,"MT-SYK-03 103 mg/kg PO, BID, Day 11, individual animals, 103 mg/kg",9 and 3 and 12 and 8 and 2 and 10 and 7 and 5
same,"Total AUC Sum (d1-11), Prophylactic (Non-Enrollment) Paw Score","MT-SYK-03 103 mg/kg PO, BID, group mean",54.15
same,"Total AUC Sum (d1-11), Prophylactic (Non-Enrollment) Paw Score","MT-SYK-03 103 mg/kg PO, BID, individual animals, 103 mg/kg",67.5 and 27.5 and 71.0 and 61.0 and 12.0 and 80.0 and 70.5 and 51.5 and 63.0 and 37.5
same,"% inhibition, Bone Resorption score",[1],29%
same,"% inhibition, Cartilage Damage score",[1],17%
same,"% inhibition, Inflammation score",[1],7%
same,"% inhibition, Pannus score",[1],29%
same,"% inhibition, Periosteal Bone Formation score",[1],18%
same,"% inhibition, Periosteal Bone Width",[1],20%
same,"% inhibition, Summed Scores",[1],18%
same,"Histopathology Scores Bone Resorption, Mean",[2],1.23
same,"Histopathology Scores Cartilage Damage, Mean",[2],2.74
same,"Histopathology Scores Inflammation, Mean",[2],3.44
same,"Histopathology Scores Pannus, Mean",[2],1.23
same,"Histopathology Scores Periosteal Bone Formation, Mean",[2],0.93
same,"Histopathology Scores Summed Scores, Mean",[2],9.58
same,"Periosteal Bone Width (40*25x measure), Mean",[2],79.33 μm
same,Histopathology Scores Bone Resorption,[3],0.83 and 0.75 and 1.17 and 1.92 and 1.42 and 2.00 and 1.75 and 0.33
same,Histopathology Scores Cartilage Damage,[3],2.33 and 2.00 and 2.58 and 4.00 and 1.67 and 2.75 and 4.17 and 3.25 and 0.67
same,Histopathology Scores Inflammation,[3],2.83 and 3.17 and 3.83 and 4.67 and 1.92 and 3.42 and 4.50 and 4.33
same,Histopathology Scores Pannus,[3],0.83 and 0.75 and 1.17 and 1.92 and 1.42 and 2.00 and 1.75 and 0.33
same,Histopathology Scores Periosteal Bone Formation,[3],0.67 and 1.17 and 1.33 and 0.33 and 1.67 and 0.83
same,Histopathology Scores Summed Scores,[3],7.50 and 7.33 and 9.92 and 13.83 and 5.42 and 10.17 and 11.58 and 12.67 and 3.58
same,Periosteal Bone Width (40*25x measure),[3],40.00 μm and 53.33 μm and 106.67 μm and 120.00 μm and 33.33 μm and 86.67 μm and 140.00 μm and 80.00 μm and 26.67 μm
same,Histopathology scores for knee and ankle joints,murine CIA,decreased histopathology scores
same,Periosteal bone width of paw and knee joints,murine CIA,slightly decreased
same,"Cartilage damage, bone resorption and inflammation in knees (microphotographs)","murine CIA, 103 mg/kg oral","decreasing of cartilage damage, bone resorption and inflammation in knees"
same,Clinical arthritis score (severity of inflammation),"murine CIA, MT-SYK-03 103 mg/kg oral",reduced the severity of inflammation
same,"% inhibition to Vehicle, Total AUC Sum (d1-11)","therapeutic/enrollment paw score, MT-SYK-03 103 mg/kg PO, BID (Group 4)",6%
same,"Total AUC Sum (d1-11), Mean","therapeutic/enrollment paw score, MT-SYK-03 103 mg/kg PO, BID (Group 4), group mean",59.75
same,Total AUC Sum (d1-11),"therapeutic/enrollment paw score, MT-SYK-03 103 mg/kg PO, BID (Group 4), individual animals, 103 mg/kg",79 and 81 and 73 and 33 and 42 and 102 and 83 and 38 and 36
same,"% inhibition to Vehicle, paw score Day 1","therapeutic/enrollment paws, Day 1, MT-SYK-03 103 mg/kg PO, BID (Group 4)",0%
same,"Average Paw Score Per Arthritis Day, Day 1, Mean","therapeutic/enrollment paws, Day 1, MT-SYK-03 103 mg/kg PO, BID (Group 4), group mean",3.20
same,"Average Paw Score Per Arthritis Day, Day 1","therapeutic/enrollment paws, Day 1, MT-SYK-03 103 mg/kg PO, BID (Group 4), individual animals, 103 mg/kg",4 and 2 and 6
same,"% inhibition to Vehicle, paw score Day 2","therapeutic/enrollment paws, Day 2, MT-SYK-03 103 mg/kg PO, BID (Group 4)",19%
same,"Average Paw Score Per Arthritis Day, Day 2, Mean","therapeutic/enrollment paws, Day 2, MT-SYK-03 103 mg/kg PO, BID (Group 4), group mean",3.80
same,"Average Paw Score Per Arthritis Day, Day 2","therapeutic/enrollment paws, Day 2, MT-SYK-03 103 mg/kg PO, BID (Group 4), individual animals, 103 mg/kg",4 and 6 and 2 and 3
same,"% inhibition to Vehicle, paw score Day 3","therapeutic/enrollment paws, Day 3, MT-SYK-03 103 mg/kg PO, BID (Group 4)",8%
same,"Average Paw Score Per Arthritis Day, Day 3, Mean","therapeutic/enrollment paws, Day 3, MT-SYK-03 103 mg/kg PO, BID (Group 4), group mean",5.40
same,"Average Paw Score Per Arthritis Day, Day 3","therapeutic/enrollment paws, Day 3, MT-SYK-03 103 mg/kg PO, BID (Group 4), individual animals, 103 mg/kg",6 and 8 and 3 and 4 and 9
same,"% inhibition to Vehicle, paw score Day 4","therapeutic/enrollment paws, Day 4, MT-SYK-03 103 mg/kg PO, BID (Group 4)",6%
same,"Average Paw Score Per Arthritis Day, Day 4, Mean","therapeutic/enrollment paws, Day 4, MT-SYK-03 103 mg/kg PO, BID (Group 4), group mean",5.80
same,"Average Paw Score Per Arthritis Day, Day 4","therapeutic/enrollment paws, Day 4, MT-SYK-03 103 mg/kg PO, BID (Group 4), individual animals, 103 mg/kg",7 and 8 and 6 and 4 and 10 and 3
same,"% inhibition to Vehicle, paw score Day 5","therapeutic/enrollment paws, Day 5, MT-SYK-03 103 mg/kg PO, BID (Group 4)",6%
same,"Average Paw Score Per Arthritis Day, Day 5, Mean","therapeutic/enrollment paws, Day 5, MT-SYK-03 103 mg/kg PO, BID (Group 4), group mean",6.20
same,"Average Paw Score Per Arthritis Day, Day 5","therapeutic/enrollment paws, Day 5, MT-SYK-03 103 mg/kg PO, BID (Group 4), individual animals, 103 mg/kg",8 and 7 and 4 and 11 and 3 and 9
same,"% inhibition to Vehicle, paw score Day 6","therapeutic/enrollment paws, Day 6, MT-SYK-03 103 mg/kg PO, BID (Group 4)",5%
same,"Average Paw Score Per Arthritis Day, Day 6, Mean","therapeutic/enrollment paws, Day 6, MT-SYK-03 103 mg/kg PO, BID (Group 4), group mean",6.30
same,"Average Paw Score Per Arthritis Day, Day 6","therapeutic/enrollment paws, Day 6, MT-SYK-03 103 mg/kg PO, BID (Group 4), individual animals, 103 mg/kg",8 and 4 and 11 and 3 and 9
same,"% inhibition to Vehicle, paw score Day 7","therapeutic/enrollment paws, Day 7, MT-SYK-03 103 mg/kg PO, BID (Group 4)",3%
same,"Average Paw Score Per Arthritis Day, Day 7, Mean","therapeutic/enrollment paws, Day 7, MT-SYK-03 103 mg/kg PO, BID (Group 4), group mean",6.60
same,"Average Paw Score Per Arthritis Day, Day 7","therapeutic/enrollment paws, Day 7, MT-SYK-03 103 mg/kg PO, BID (Group 4), individual animals, 103 mg/kg",9 and 8 and 4 and 11
same,"% inhibition to Vehicle, paw score Day 8","therapeutic/enrollment paws, Day 8, MT-SYK-03 103 mg/kg PO, BID (Group 4)",3%
same,"Average Paw Score Per Arthritis Day, Day 8, Mean","therapeutic/enrollment paws, Day 8, MT-SYK-03 103 mg/kg PO, BID (Group 4), group mean",6.80
same,"Average Paw Score Per Arthritis Day, Day 8","therapeutic/enrollment paws, Day 8, MT-SYK-03 103 mg/kg PO, BID (Group 4), individual animals, 103 mg/kg",10 and 9 and 3 and 5 and 11 and 4
same,"% inhibition to Vehicle, paw score Day 9","therapeutic/enrollment paws, Day 9, MT-SYK-03 103 mg/kg PO, BID (Group 4)",5%
same,"Average Paw Score Per Arthritis Day, Day 9, Mean","therapeutic/enrollment paws, Day 9, MT-SYK-03 103 mg/kg PO, BID (Group 4), group mean",6.90
same,"Average Paw Score Per Arthritis Day, Day 9","therapeutic/enrollment paws, Day 9, MT-SYK-03 103 mg/kg PO, BID (Group 4), individual animals, 103 mg/kg",10 and 9 and 3 and 5 and 12 and 4
same,"% inhibition to Vehicle, paw score Day 10","therapeutic/enrollment paws, Day 10, MT-SYK-03 103 mg/kg PO, BID (Group 4)",7%
same,"Average Paw Score Per Arthritis Day, Day 10, Mean","therapeutic/enrollment paws, Day 10, MT-SYK-03 103 mg/kg PO, BID (Group 4), group mean",6.90
same,"Average Paw Score Per Arthritis Day, Day 10","therapeutic/enrollment paws, Day 10, MT-SYK-03 103 mg/kg PO, BID (Group 4), individual animals, 103 mg/kg",10 and 9 and 3 and 5 and 12 and 4
same,"% inhibition to Vehicle, paw score Day 11","therapeutic/enrollment paws, Day 11, MT-SYK-03 103 mg/kg PO, BID (Group 4)",7%
same,"Average Paw Score Per Arthritis Day, Day 11, Mean","therapeutic/enrollment paws, Day 11, MT-SYK-03 103 mg/kg PO, BID (Group 4), group mean",6.90
same,"Average Paw Score Per Arthritis Day, Day 11","therapeutic/enrollment paws, Day 11, MT-SYK-03 103 mg/kg PO, BID (Group 4), individual animals, 103 mg/kg",10 and 9 and 3 and 5 and 12 and 4
